12 molecules from US20140005163A1 (NOVARTIS AG, priority 2010, published 2014) can be followed below.

pIC50: −log10 of the molar value.

The subject of experiment [1] is PKB Ser473 phosphorylation in Rat1-myr-HA-p110 beta cells. Description: Reverse protein array assay, PKB Ser473 phosphorylation in Rat1-myr-p110 beta cells. The experiment is classed as cell-based. The settings on record: 0.5 h, pAkt Ser473, 30 minutes incubation, read-out: p-PKB IC50. Put shortly:
(§1)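 Rat1 cells expressing myristoylated HA-tagged p110 alpha, beta or delta were plated for at least 20 h, then exposed to 8-step serial compound dilutions (0.2% DMSO final) for 30 min at 37 °C. Lysates were spotted at four dilutions on protein microarrays, and relative fluorescence intensity of phospho-Ser473 PKB was calculated.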

The test system of experiment [2] is S6 Ribosomal Protein phosphorylation Ser235/236 in TSC1 null mouse embryo fibroblast (MEF) cells. Put plainly: Reverse protein array assay, S6 Ribosomal Protein phosphorylation Ser235/236 in TSC1 null MEF cells. The format is cell-based. The settings on record: 1 h, pS6 ribosomal protein Ser235/236, 60 minutes incubation, read-out: p-S6 IC50. An outline of the steps: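 TSC1−/− MEFs, seeded and held ≥20 h at 37 °C/5% CO2, were exposed to 8-step serial compound dilutions (0.02% DMSO final; DMSO vehicle control) for 60 min at 37 °C. Cells were then lysed on ice for 10 min and lysates spotted onto reverse protein array chips.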

The subject of experiment [3] is PKB Ser473 phosphorylation in Rat1-myr-HA-p110 alpha cells. Put plainly: Reverse protein array assay, PKB Ser473 phosphorylation in Rat1-myr-p110 alpha cells. The experiment is classed as cell-based. The settings on record: 0.5 h, pAkt Ser473, 30 minutes compound incubation, read-out: p-PKB IC50. Put shortly:
as §1

A further experiment deals with T1, PI3K delta (Homo sapiens, UniProt O00329).
T1 construct: for the full-length p110-d subunit are generated and fused by overlapping PCR; p85(iSH2) fusion partner (see partner chain) (N); His tag (C); made in house; host or cells: baculovirus; Tn5 (Trichoplusia ni) or TiniPro insect cells
Put plainly: PI3K delta kinase assay (Kinase-Glo luminescence). The format is biochemical. An outline of the steps: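 Construct BV-1060, p85 iSH2–linker–full-length p110δ, His-tagged, at 10 nM, with 1 μM ATP and 10 μg/mL phosphatidylinositol in pH 7.5 Tris, 3 mM MgCl2, 50 mM NaCl, 0.05% CHAPS. Run 60 min at room temperature; remaining ATP read by Kinase-Glo luminescence; IC50 from 4-parameter logistic fit of 8 concentrations.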

T1 sequence (O00329 with tags, fused parts or gaps limits assumed): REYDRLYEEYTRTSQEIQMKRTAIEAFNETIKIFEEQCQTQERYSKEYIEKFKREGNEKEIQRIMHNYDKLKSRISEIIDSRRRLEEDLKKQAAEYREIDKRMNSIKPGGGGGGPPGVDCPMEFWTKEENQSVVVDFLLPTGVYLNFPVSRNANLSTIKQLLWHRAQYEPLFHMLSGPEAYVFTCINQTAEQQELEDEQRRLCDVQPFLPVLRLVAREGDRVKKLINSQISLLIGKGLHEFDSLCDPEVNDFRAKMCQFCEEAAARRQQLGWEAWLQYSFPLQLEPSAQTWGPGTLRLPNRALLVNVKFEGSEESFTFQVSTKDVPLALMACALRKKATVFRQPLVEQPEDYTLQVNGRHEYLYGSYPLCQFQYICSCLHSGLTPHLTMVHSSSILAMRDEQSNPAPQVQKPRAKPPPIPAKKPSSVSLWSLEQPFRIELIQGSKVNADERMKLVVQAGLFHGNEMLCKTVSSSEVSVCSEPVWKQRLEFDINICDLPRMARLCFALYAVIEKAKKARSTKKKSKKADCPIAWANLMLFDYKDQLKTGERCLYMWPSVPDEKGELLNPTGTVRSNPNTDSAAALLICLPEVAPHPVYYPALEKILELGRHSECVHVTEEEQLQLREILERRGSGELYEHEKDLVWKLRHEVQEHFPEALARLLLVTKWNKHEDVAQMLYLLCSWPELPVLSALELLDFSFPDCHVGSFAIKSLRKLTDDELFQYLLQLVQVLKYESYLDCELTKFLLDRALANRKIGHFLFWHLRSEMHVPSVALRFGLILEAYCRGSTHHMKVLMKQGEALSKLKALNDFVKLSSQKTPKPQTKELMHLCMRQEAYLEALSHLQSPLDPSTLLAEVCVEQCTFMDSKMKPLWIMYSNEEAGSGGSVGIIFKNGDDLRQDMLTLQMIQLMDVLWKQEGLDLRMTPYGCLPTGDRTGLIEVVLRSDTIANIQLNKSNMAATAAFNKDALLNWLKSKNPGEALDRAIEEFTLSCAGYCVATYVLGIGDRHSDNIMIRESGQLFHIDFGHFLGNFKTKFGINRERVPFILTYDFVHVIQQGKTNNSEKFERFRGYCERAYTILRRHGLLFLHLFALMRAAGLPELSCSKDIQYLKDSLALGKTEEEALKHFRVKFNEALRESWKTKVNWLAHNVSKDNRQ

Regarding `COCc1cc(-c2ccc3ncc4c(c3c2)n(-c2cn(C)nc2Cl)c(=O)n4C)cnc1OC` [Example 201, 1-(3-Chloro-1-methyl-1H-pyrazol-4-yl)-8-(6-methoxy-5-methoxymethyl-pyridin-3-yl)-3-methyl-1,3-dihydro-imidazo[4,5-c]quinolin-2-one], the pIC50 in experiment [1] was 7.72; in experiment [2], 9.00; in experiment [3] it was 7.92; at PI3K delta, more than 8.52.
In the case of `COc1cc(-c2ccc3ncc4c(c3c2)n(-c2cn(CCO)nc2C)c(=O)n4C)cnc1C` [Example 211.1, 1-[1-(2-Hydroxy-ethyl)-3-methyl-1H-pyrazol-4-yl]-8-(5-methoxy-6-methyl-pyridin-3-yl)-3-methyl-1,3-dihydro-imidazo[4,5-c]quinolin-2-one], the pIC50 in experiment [1] was 7.21; in experiment [2] it was 7.68; in experiment [3], 7.96; at PI3K delta, 7.85.
For `Cc1nn(C(C)C)cc1-n1c(=O)n(C)c2cnc3ccc(-c4cncc(C(O)(CF)CF)c4)cc3c21` [Example 219, 8-[5-(2-Fluoro-1-fluoromethyl-1-hydroxy-ethyl)-pyridin-3-yl]-1-(1-isopropyl-3-methyl-1H-pyrazol-4-yl)-3-methyl-1,3-dihydro-imidazo[4,5-c]quinolin-2-one] the same measures were 6.30, 8.22, 7.28 and 7.89.
For the molecule `CCn1cc(-n2c(=O)n(C)c3cnc4ccc(-c5cncc(C6(C#N)CCC6)c5)cc4c32)c(C)n1` [Example 221.2, 1-{5-[1-(1-Ethyl-3-methyl-1H-pyrazol-4-yl)-3-methyl-2-oxo-2,3-dihydro-1H-imidazo[4,5-c]quinolin-8-yl]-pyridin-3-yl}-cyclobutanecarbonitrile], the pIC50 in experiment [1] is 6.99; in experiment [2] it was 9.00; in experiment [3], 7.74; on PI3K delta, 8.22.
With `CC(=O)Nc1cc(-c2ccc3ncc4c(c3c2)n(-c2cn(C)nc2C)c(=O)n4C)cnc1Cl` [Example 222, N-{2-Chloro-5-[1-(1,3-dimethyl-1H-pyrazol-4-yl)-3-methyl-2-oxo-2,3-dihydro-1H-imidazo[4,5-c]quinolin-8-yl]-pyridin-3-yl}-acetamide], the negative logarithm of the IC50 (pIC50) in experiment [1] was 7.28; in experiment [2], 8.40; in experiment [3] it was 7.26; at PI3K delta it was 7.09.
As for `Cc1nn(C)cc1-n1c(=O)n(C)c2cnc3ccc(-c4cnc(Cl)c(NS(C)(=O)=O)c4)cc3c21` [Example 223, N-{2-Chloro-5-[1-(1,3-dimethyl-1H-pyrazol-4-yl)-3-methyl-2-oxo-2,3-dihydro-1H-imidazo[4,5-c]quinolin-8-yl]-pyridin-3-yl}-methanesulfonamide], the pIC50 in experiment [1] is 7.62; in experiment [2], 7.46; in experiment [3], 7.96; at PI3K delta, 8.22.
The corresponding values for `Cc1nn(C)cc1-n1c(=O)n(C)c2cnc3ccc(-c4cnc(N)c(C(=O)NC(C)C)c4)cc3c21` [Example 225, 2-Amino-5-[1-(1,3-dimethyl-1H-pyrazol-4-yl)-3-methyl-2-oxo-2,3-dihydro-1H-imidazo[4,5-c]quinolin-8-yl]-N-isopropyl-nicotinamide] are 6.95, 8.40, 7.10 and 7.59.
For the molecule `COc1ncc(-c2ccc3ncc4c(c3c2)n(-c2cn(C(C)C)nc2C)c(=O)n4C)c(OC)n1` [Example 234.3, 8-(2,4-Dimethoxy-pyrimidin-5-yl)-1-(1-isopropyl-3-methyl-1H-pyrazol-4-yl)-3-methyl-1,3-dihydro-imidazo[4,5-c]quinolin-2-one], the pIC50 is 7.82 in experiment [1], 8.70 in experiment [2], 7.82 in experiment [3] and more than 8.52 on PI3K delta.
Take `Cc1nn(C)cc1-n1c(=O)n(C)c2cnc3ccc(-c4cnc(CO)c(Cl)c4)cc3c21` [Example 238, 8-(5-Chloro-6-hydroxymethyl-pyridin-3-yl)-1-(1,3-dimethyl-1H-pyrazol-4-yl)-3-methyl-1,3-dihydro-imidazo[4,5-c]quinolin-2-one]: the pIC50 in experiment [1] is 6.94; in experiment [2], 8.22; in experiment [3] it was 7.49; at PI3K delta, 6.33.
The corresponding values for `CCOC(C)(C)c1cncc(-c2ccc3ncc4c(c3c2)n(-c2cn(C)nc2C)c(=O)n4C)c1` [Example 240, 1-(1,3-Dimethyl-1H-pyrazol-4-yl)-8-[5-(1-ethoxy-1-methyl-ethyl)-pyridin-3-yl]-3-methyl-1,3-dihydro-imidazo[4,5-c]quinolin-2-one] are 6.89, 7.96, 7.14 and more than 8.52.
Take `C=CCn1c(=O)n(-c2cn(C)nc2C)c2c3cc(-c4cncc(N)c4)ccc3ncc21` [Example 246, 3-Allyl-8-(5-amino-pyridin-3-yl)-1-(1,3-dimethyl-1H-pyrazol-4-yl)-1,3-dihydro-imidazo[4,5-c]quinolin-2-one]: the pIC50 in experiment [1] is 6.53; in experiment [2] it was 7.39; in experiment [3] it was 6.64; at PI3K delta, 8.00.
For `CCN(CC)C(=O)Cn1cc(-n2c(=O)n(C)c3cnc4ccc(-c5cnc(N6CCCC6)nc5)cc4c32)c(C)n1` [Example 247.1, N,N-Diethyl-2-{3-methyl-4-[3-methyl-2-oxo-8-(2-pyrrolidin-1-yl-pyrimidin-5-yl)-2,3-dihydro-imidazo[4,5-c]quinolin-1-yl]-pyrazol-1-yl}-acetamide] the same measures were 7.28, 8.52, 7.55 and 6.11.
